What follows are compounds tested on 843126-344-R-J1-PDC complex spheroid viability (assay: Anticancer human tumor 843126-344-R-J1-PDC patient-derived melanoma cell line growth inhibition [POLQ]). Details: curve of first compound; second compound 0.0316 µM.
Procedure, shortened: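 Growth inhibition in 3D: complex spheroids (tumor PDC, HUVEC, MSC) treated with POLQ inhibitor combinations; where Cmax unknown, highest tested concentration 10 microM, except SN-38 at 1 microM.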
For C=CCn1c(=O)c2cnc(Nc3ccc(N4CCN(C)CC4)cc3)nc2n1-c1cccc(C(C)(C)O)n1 + Cc1cccc(N(C)C(=O)C2C(O)CCN2c2nc(C)cc(C(F)(F)F)c2C#N)c1, the IC50 was > 1 µM. For CC[C@@]1(O)C(=O)OCc2c1cc1n(c2=O)Cc2cc3c(CN(C)C)c(O)ccc3nc2-1 + Cc1cccc(N(C)C(=O)C2C(O)CCN2c2nc(C)cc(C(F)(F)F)c2C#N)c1, the IC50 was > 0.1 µM. With CCc1c2c(nc3ccc(O)cc13)-c1cc3c(c(=O)n1C2)COC(=O)[C@]3(O)CC + Cc1cccc(N(C)C(=O)C2C(O)CCN2c2nc(C)cc(C(F)(F)F)c2C#N)c1 the IC50 was 0.991 µM. CNCc1ccc(-c2[nH]c3cc(F)cc4c3c2CCNC4=O)cc1 + Cc1cccc(N(C)C(=O)C2C(O)CCN2c2nc(C)cc(C(F)(F)F)c2C#N)c1 was tested, and the IC50 was > 10 µM. In the case of Cn1ncnc1[C@H]1c2n[nH]c(=O)c3cc(F)cc(c23)N[C@@H]1c1ccc(F)cc1 + Cc1cccc(N(C)C(=O)C2C(O)CCN2c2nc(C)cc(C(F)(F)F)c2C#N)c1, the IC50 is reported as > 0.1 µM. With O=C(c1cc(Cc2n[nH]c(=O)c3ccccc23)ccc1F)N1CCN(C(=O)C2CC2)CC1 + Cc1cccc(N(C)C(=O)C2C(O)CCN2c2nc(C)cc(C(F)(F)F)c2C#N)c1 the IC50 was > 10 µM.

Same assay, conditions: curve of first compound; second compound 0.1 µM
For C=CCn1c(=O)c2cnc(Nc3ccc(N4CCN(C)CC4)cc3)nc2n1-c1cccc(C(C)(C)O)n1 + Cc1cccc(N(C)C(=O)C2C(O)CCN2c2nc(C)cc(C(F)(F)F)c2C#N)c1, the IC50 was > 1 µM. CC[C@@]1(O)C(=O)OCc2c1cc1n(c2=O)Cc2cc3c(CN(C)C)c(O)ccc3nc2-1 + Cc1cccc(N(C)C(=O)C2C(O)CCN2c2nc(C)cc(C(F)(F)F)c2C#N)c1 was tested, and the IC50 was > 0.1 µM. Compound CCc1c2c(nc3ccc(O)cc13)-c1cc3c(c(=O)n1C2)COC(=O)[C@]3(O)CC + Cc1cccc(N(C)C(=O)C2C(O)CCN2c2nc(C)cc(C(F)(F)F)c2C#N)c1 has an IC50 of 0.749 µM. For CNCc1ccc(-c2[nH]c3cc(F)cc4c3c2CCNC4=O)cc1 + Cc1cccc(N(C)C(=O)C2C(O)CCN2c2nc(C)cc(C(F)(F)F)c2C#N)c1, the IC50 was > 10 µM. For Cn1ncnc1[C@H]1c2n[nH]c(=O)c3cc(F)cc(c23)N[C@@H]1c1ccc(F)cc1 + Cc1cccc(N(C)C(=O)C2C(O)CCN2c2nc(C)cc(C(F)(F)F)c2C#N)c1, the IC50 was > 0.1 µM. In the case of O=C(c1cc(Cc2n[nH]c(=O)c3ccccc23)ccc1F)N1CCN(C(=O)C2CC2)CC1 + Cc1cccc(N(C)C(=O)C2C(O)CCN2c2nc(C)cc(C(F)(F)F)c2C#N)c1, the IC50 is reported as > 10 µM.

Same assay, conditions: curve of first compound; second compound 0.316 µM
In the case of C=CCn1c(=O)c2cnc(Nc3ccc(N4CCN(C)CC4)cc3)nc2n1-c1cccc(C(C)(C)O)n1 + Cc1cccc(N(C)C(=O)C2C(O)CCN2c2nc(C)cc(C(F)(F)F)c2C#N)c1, the IC50 is reported as > 1 µM. CC[C@@]1(O)C(=O)OCc2c1cc1n(c2=O)Cc2cc3c(CN(C)C)c(O)ccc3nc2-1 + Cc1cccc(N(C)C(=O)C2C(O)CCN2c2nc(C)cc(C(F)(F)F)c2C#N)c1 was tested, and the IC50 was > 0.1 µM. CCc1c2c(nc3ccc(O)cc13)-c1cc3c(c(=O)n1C2)COC(=O)[C@]3(O)CC + Cc1cccc(N(C)C(=O)C2C(O)CCN2c2nc(C)cc(C(F)(F)F)c2C#N)c1 gave an IC50 of 0.4 µM. CNCc1ccc(-c2[nH]c3cc(F)cc4c3c2CCNC4=O)cc1 + Cc1cccc(N(C)C(=O)C2C(O)CCN2c2nc(C)cc(C(F)(F)F)c2C#N)c1 was tested, and the IC50 was > 10 µM. With Cn1ncnc1[C@H]1c2n[nH]c(=O)c3cc(F)cc(c23)N[C@@H]1c1ccc(F)cc1 + Cc1cccc(N(C)C(=O)C2C(O)CCN2c2nc(C)cc(C(F)(F)F)c2C#N)c1 the IC50 was > 0.1 µM. For O=C(c1cc(Cc2n[nH]c(=O)c3ccccc23)ccc1F)N1CCN(C(=O)C2CC2)CC1 + Cc1cccc(N(C)C(=O)C2C(O)CCN2c2nc(C)cc(C(F)(F)F)c2C#N)c1, the IC50 was > 10 µM.

Same assay, conditions: curve of first compound; second compound 1 µM
With C=CCn1c(=O)c2cnc(Nc3ccc(N4CCN(C)CC4)cc3)nc2n1-c1cccc(C(C)(C)O)n1 + Cc1cccc(N(C)C(=O)C2C(O)CCN2c2nc(C)cc(C(F)(F)F)c2C#N)c1 the IC50 was > 1 µM. For CC[C@@]1(O)C(=O)OCc2c1cc1n(c2=O)Cc2cc3c(CN(C)C)c(O)ccc3nc2-1 + Cc1cccc(N(C)C(=O)C2C(O)CCN2c2nc(C)cc(C(F)(F)F)c2C#N)c1, the IC50 was > 0.1 µM. For CCc1c2c(nc3ccc(O)cc13)-c1cc3c(c(=O)n1C2)COC(=O)[C@]3(O)CC + Cc1cccc(N(C)C(=O)C2C(O)CCN2c2nc(C)cc(C(F)(F)F)c2C#N)c1, the IC50 was > 1 µM. CNCc1ccc(-c2[nH]c3cc(F)cc4c3c2CCNC4=O)cc1 + Cc1cccc(N(C)C(=O)C2C(O)CCN2c2nc(C)cc(C(F)(F)F)c2C#N)c1 was tested, and the IC50 was > 10 µM. With Cn1ncnc1[C@H]1c2n[nH]c(=O)c3cc(F)cc(c23)N[C@@H]1c1ccc(F)cc1 + Cc1cccc(N(C)C(=O)C2C(O)CCN2c2nc(C)cc(C(F)(F)F)c2C#N)c1 the IC50 was > 0.1 µM. In the case of O=C(c1cc(Cc2n[nH]c(=O)c3ccccc23)ccc1F)N1CCN(C(=O)C2CC2)CC1 + Cc1cccc(N(C)C(=O)C2C(O)CCN2c2nc(C)cc(C(F)(F)F)c2C#N)c1, the IC50 is reported as > 10 µM.

Same assay, conditions: curve of first compound; second compound 3.16 µM
C=CCn1c(=O)c2cnc(Nc3ccc(N4CCN(C)CC4)cc3)nc2n1-c1cccc(C(C)(C)O)n1 + Cc1cccc(N(C)C(=O)C2C(O)CCN2c2nc(C)cc(C(F)(F)F)c2C#N)c1 was tested, and the IC50 was > 1 µM. With CC[C@@]1(O)C(=O)OCc2c1cc1n(c2=O)Cc2cc3c(CN(C)C)c(O)ccc3nc2-1 + Cc1cccc(N(C)C(=O)C2C(O)CCN2c2nc(C)cc(C(F)(F)F)c2C#N)c1 the IC50 was > 0.1 µM. With CCc1c2c(nc3ccc(O)cc13)-c1cc3c(c(=O)n1C2)COC(=O)[C@]3(O)CC + Cc1cccc(N(C)C(=O)C2C(O)CCN2c2nc(C)cc(C(F)(F)F)c2C#N)c1 the IC50 was > 1 µM. In the case of CNCc1ccc(-c2[nH]c3cc(F)cc4c3c2CCNC4=O)cc1 + Cc1cccc(N(C)C(=O)C2C(O)CCN2c2nc(C)cc(C(F)(F)F)c2C#N)c1, the IC50 is reported as > 10 µM. Cn1ncnc1[C@H]1c2n[nH]c(=O)c3cc(F)cc(c23)N[C@@H]1c1ccc(F)cc1 + Cc1cccc(N(C)C(=O)C2C(O)CCN2c2nc(C)cc(C(F)(F)F)c2C#N)c1 was tested, and the IC50 was > 0.1 µM. With O=C(c1cc(Cc2n[nH]c(=O)c3ccccc23)ccc1F)N1CCN(C(=O)C2CC2)CC1 + Cc1cccc(N(C)C(=O)C2C(O)CCN2c2nc(C)cc(C(F)(F)F)c2C#N)c1 the IC50 was > 10 µM.

Same assay, conditions: curve of first compound; second compound 10 µM
In the case of C=CCn1c(=O)c2cnc(Nc3ccc(N4CCN(C)CC4)cc3)nc2n1-c1cccc(C(C)(C)O)n1 + Cc1cccc(N(C)C(=O)C2C(O)CCN2c2nc(C)cc(C(F)(F)F)c2C#N)c1, the IC50 is reported as > 1 µM.
